# From patent US9884063B2, “Amido-substituted azole compounds” (Bayer Pharma Aktiengesellschaft, priority 2014, dated 2018)
# Molecular target: T1, TNKS2 (Homo sapiens, UniProt Q9H2K2)
# T1 sequence (Q9H2K2 1-1166): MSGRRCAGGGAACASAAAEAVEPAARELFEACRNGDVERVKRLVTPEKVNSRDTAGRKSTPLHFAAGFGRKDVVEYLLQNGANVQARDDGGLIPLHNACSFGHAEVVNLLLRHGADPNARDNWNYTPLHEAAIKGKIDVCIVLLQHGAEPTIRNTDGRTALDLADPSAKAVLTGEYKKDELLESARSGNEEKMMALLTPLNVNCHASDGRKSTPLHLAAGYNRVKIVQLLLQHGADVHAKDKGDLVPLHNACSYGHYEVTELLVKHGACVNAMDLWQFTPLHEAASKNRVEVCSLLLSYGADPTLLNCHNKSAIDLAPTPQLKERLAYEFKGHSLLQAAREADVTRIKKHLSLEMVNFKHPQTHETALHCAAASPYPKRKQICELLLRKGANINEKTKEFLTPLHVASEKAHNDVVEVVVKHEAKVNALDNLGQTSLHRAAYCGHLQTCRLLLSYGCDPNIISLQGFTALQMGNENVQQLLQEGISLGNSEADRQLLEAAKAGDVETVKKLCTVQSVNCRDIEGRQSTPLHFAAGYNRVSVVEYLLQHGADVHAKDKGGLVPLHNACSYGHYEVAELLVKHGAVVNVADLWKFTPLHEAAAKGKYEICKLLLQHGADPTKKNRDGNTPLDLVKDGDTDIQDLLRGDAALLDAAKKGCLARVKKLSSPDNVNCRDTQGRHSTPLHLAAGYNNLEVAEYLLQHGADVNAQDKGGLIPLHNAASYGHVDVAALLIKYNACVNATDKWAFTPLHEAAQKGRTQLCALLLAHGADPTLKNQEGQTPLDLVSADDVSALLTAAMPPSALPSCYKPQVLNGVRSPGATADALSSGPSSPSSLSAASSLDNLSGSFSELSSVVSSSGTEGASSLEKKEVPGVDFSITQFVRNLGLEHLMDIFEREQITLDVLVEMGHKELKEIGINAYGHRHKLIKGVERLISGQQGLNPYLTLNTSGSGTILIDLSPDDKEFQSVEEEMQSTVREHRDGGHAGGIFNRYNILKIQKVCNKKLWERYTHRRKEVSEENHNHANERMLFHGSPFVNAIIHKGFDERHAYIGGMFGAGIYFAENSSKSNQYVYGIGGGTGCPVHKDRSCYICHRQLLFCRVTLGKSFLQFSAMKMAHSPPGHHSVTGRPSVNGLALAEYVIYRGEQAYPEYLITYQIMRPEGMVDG
# Assay: Modified TNKS2 Assay 3 (BPS kit #80578, biotin-NAD+, 96 well)
# Assay type: biochemical
# Details: human TNKS2, BPS kit #80578, 96 well
# Procedure: The potency of the compounds against human TNKS2 according to the invention was assessed using a commercially available biotin/streptavidin binding assay kits from BPS Bioscience, San Diego, USA (Catalog #80578 for TNKS2). The incorporation of a biotin-labeled NAD+ during the […] catalyzed ribosylation of a suitable protein substrate was detected using with a streptavidin-HRP coupled chemi-luminescent readout. The intensity of the readout signal is proportional to the incorporated NAD^+. Inhibition of TNKS2 leads to a decreased incorporation of NAD^+ and consequently to a lower readout signal intensity in the corresponding TNKS2 assays. The concentration of a test compound that inhibits the enzyme activity by 50% (corresponds to half of the normed readout signal intensity) is reported as IC50. The assay conducted in a 96 well MTP format according to the manufacturer's protocol and using a BMG Pherastar MTP reader [BMG-Labtech, Offenburg, Germany].
row,IC50 [nM],Structure (SMILES)
1,60,"CNC(=O)c1nc[nH]c1C(=O)Nc1ccc(NC(=O)c2ccc(F)cc2Cl)cc1 [Example 12, N^5-{4-[(2-chloro-4-fluorobenzoyl)amino]phenyl}-N^4-methyl-1H-imidazole-4,5-dicarboxamide]"
2,40,"CNC(=O)c1nc[nH]c1C(=O)Nc1ccc(NC(=O)c2ccc(F)cc2Cl)nc1 [Example 16, N^5-{6-[(2-chloro-4-fluorobenzoyl)amino]pyridin-3-yl}-N^4-methyl-1H-imidazole-4,5-dicarboxamide]"
3,130,"O=C(Nc1ccc(NC(=O)c2[nH]cnc2C(=O)NCC(F)(F)F)cc1)c1ccc(F)cc1Cl [Example 30, N^4-{4-[(2-chloro-4-fluorobenzoyl)amino]phenyl}-N^5-(2,2,2-trifluoroethyl)-1H-imidazole-4,5-dicarboxamide]"
4,230,"CNC(=O)c1nc[nH]c1C(=O)Nc1ccc(NC(=O)c2c(F)cc(F)cc2Cl)cc1 [Example 118, N^5-{4-[(2-chloro-4,6-difluorobenzoyl)amino]phenyl}-N^4-methyl-1H-imidazole-4,5-dicarboxamide]"
5,< 0.5,"O=C(NCCN1CCCCC1)c1nc[nH]c1C(=O)Nc1ccc(NC(=O)c2c(F)cc(F)cc2Cl)cc1 [Example 119, N^5-{4-[(2-chloro-4,6-difluorobenzoyl)amino]phenyl}-N^4-[2-(piperidin-1-yl)ethyl]-1H-imidazole-4,5-dicarboxamide]"
6,110,NC(=O)c1nc[nH]c1C(=O)Nc1ccc(NC(=O)c2ccc(F)cc2Cl)cc1 [Example 121]
7,1,"CC1CCN(CCNC(=O)c2nc[nH]c2C(=O)Nc2ccc(NC(=O)c3ccc(F)cc3Cl)cc2)CC1 [Example 126, N^5-{4-[(2-chloro-4-fluorobenzoyl)amino]phenyl}-N^4-[2-(4-methylpiperidin-1-yl)ethyl]-1H-imidazole-4,5-dicarboxamide]"
8,170,"COCCNC(=O)c1[nH]cnc1C(=O)Nc1ccc(NC(=O)c2ccc(F)cc2Cl)cc1 [Example 130, N^4-{4-[(2-chloro-4-fluorobenzoyl)amino]phenyl}-N^5-(2-methoxyethyl)-1H-imidazole-4,5-dicarboxamide]"
9,3,"CC1CCCN(CCNC(=O)c2[nH]cnc2C(=O)Nc2ccc(NC(=O)c3ccc(F)cc3Cl)cc2)C1 (centres unmarked) [Example 208, N^4-{4-[(2-chloro-4-fluorobenzoyl)amino]phenyl}-N^5-[2-(3-methylpiperidin-1-yl)ethyl]-1H-imidazole-4,5-dicarboxamide]"
10,0.9,"O=C(Nc1ccc(NC(=O)c2nc[nH]c2C(=O)NCCN2CCCC(F)C2)cc1)c1ccc(F)cc1Cl (centres unmarked) [Example 226, N^4-{4-[(2-chloro-4-fluorobenzoyl)amino]phenyl}-N^5-[2-(3-fluoropiperidin-1-yl)ethyl]-1H-imidazole-4,5-dicarboxamide]"
11,80,"O=C(Nc1ccc(NC(=O)c2nc[nH]c2C(=O)NC2CCOC2)cc1)c1ccc(F)cc1Cl (centres unmarked) [Example 236, N^4-{4-[(2-chloro-4-fluorobenzoyl)amino]phenyl}-N^5-(tetrahydrofuran-3-yl)-1H-imidazole-4,5-dicarboxamide]"
12,30,"CNC(=O)c1nc[nH]c1C(=O)Nc1ccc(NC(=O)c2cc(OC)c(OC)cc2Cl)cc1 [Example 240, N^5-{4-[(2-chloro-4,5-dimethoxybenzoyl)amino]phenyl}-N^4-methyl-1H-imidazole-4,5-dicarboxamide]"
13,120,"CNC(=O)c1nc[nH]c1C(=O)Nc1ccc(NC(=O)c2cc(F)c(F)cc2Cl)cc1 [Example 242, N^5-{4-[(2-chloro-4,5-difluorobenzoyl)amino]phenyl}-N^4-methyl-1H-imidazole-4,5-dicarboxamide]"
14,30,"CNC(=O)c1nc[nH]c1C(=O)Nc1ccc(NC(=O)c2ccc(C)cc2Cl)cc1 [Example 244, N^5-{4-[(2-chloro-4-methylbenzoyl)amino]phenyl}-N^4-methyl-1H-imidazole-4,5-dicarboxamide]"
